Test results reported in patent US20020119198A1, “Self-emulsifying drug delivery systems for extremely water-insoluble, lipophilic drugs” (priority 2000, published 2002).

What was measured:
[1] = Solubility of the active agent in the formulation vehicle; type: physicochemical
[2] = Solubility of the active agent in a typical aqueous formulation; type: physicochemical; conditions: room temperature

Compound: Cc1cc(C)c(C=C2C(=O)Nc3ccccc32)[nH]1 [3-[(2,4-dimethylpyrrol-5-yl)methylene]-2-indolinone]
- solubility, drug dissolved in vehicle ([1]; vehicle free of polyvinylpyrrolidone): about 15 mg/g
- solubility, drug dissolved in vehicle ([1]; vehicle of the present invention (with polyvinylpyrrolidone)): over 30 mg/g
- solubility in a typical aqueous formulation [2]: approximately 10 nanograms per milliliter
